Measurements from ChEMBL document CHEMBL1201861, “Genomics of Drug Sensitity in Cancer screening data, Wellcome Trust Sanger Institute”.

Legend:
NCI-H520 = assay: cells; format: functional, cell-based; details: Homo sapiens;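 further: growth inhibition of NCI-H520 cells, measured by a cell viability assay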
Description: SANGER: Inhibition of human NCI-H520 cell growth in a cell viability assay.

EW-24 = assay: cells; format: functional, cell-based, Homo sapiens; details: Homo sapiens, EW-24;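 further: human EW-24 cancer cell line, growth inhibition read out via a cell viability assay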
Description: SANGER: Inhibition of human EW-24 cell growth in a cell viability assay.

SNU-16 = assay: cells; format: functional, cell-based, Homo sapiens; details: Homo sapiens, SNU-16;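 further: growth inhibition of human SNU-16 cells, determined with a cell viability readout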
Description: SANGER: Inhibition of human NCI-SNU-16 cell growth in a cell viability assay.

CAL-72 = assay: cells; format: functional, cell-based; details: Homo sapiens;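 further: cell viability assay measuring inhibition of proliferation in the CAL-72 cell line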
Description: SANGER: Inhibition of human CAL-72 cell growth in a cell viability assay.

DU-145 = assay: cells; format: functional, cell-based; details: Homo sapiens
Description: SANGER: Inhibition of human DU-145 cell growth in a cell viability assay.

U-698-M = assay: cells; format: functional, cell-based, Homo sapiens; details: Homo sapiens, U-698-M
Description: SANGER: Inhibition of human U-698-M cell growth in a cell viability assay.

ACHN = assay: cells; format: functional, cell-based; details: Homo sapiens;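 further: cell viability read-out used to gauge how strongly growth of human ACHN cells is suppressed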
Description: SANGER: Inhibition of human ACHN cell growth in a cell viability assay.

HCC70 = assay: cells; format: functional, cell-based; details: Homo sapiens;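 further: cell viability assay measuring how strongly the compound suppresses proliferation of HCC70 cells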
Description: SANGER: Inhibition of human HCC70 cell growth in a cell viability assay.

CAMA-1 = assay: cells; format: functional, cell-based; details: Homo sapiens;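 further: growth inhibition of CAMA-1 cells, read out with a cell viability assay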
Description: SANGER: Inhibition of human CAMA-1 cell growth in a cell viability assay.

CESS = assay: SANGER: Inhibition of human CESS cell growth in a cell viability assay.; format: functional, cell-based; details: Homo sapiens, CESS
LN-405 = assay: cells; format: functional, cell-based; details: Homo sapiens
Description: SANGER: Inhibition of human LN-405 cell growth in a cell viability assay.

KMS-12-PE = assay: cells; format: functional, cell-based, Homo sapiens; details: Homo sapiens, KMS-12-PE;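 further: growth inhibition of human KMS-12-PE cells, measured with a cell viability assay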
Description: SANGER: Inhibition of human KMS-12-PE cell growth in a cell viability assay.

NCI-H1573 = assay: cells; format: functional, cell-based; details: Homo sapiens;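 further: growth inhibition of NCI-H1573 cells, read out with a cell viability assay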
Description: SANGER: Inhibition of human NCI-H1573 cell growth in a cell viability assay.

BL-70 = assay: SANGER: Inhibition of human BL-70 cell growth in a cell viability assay.; format: functional, cell-based; details: Homo sapiens, BL-70
H4 = assay: cells; format: functional, cell-based; details: Homo sapiens
Description: SANGER: Inhibition of human H4 cell growth in a cell viability assay.

NCI-H2087 = assay: cells; format: functional, cell-based; details: Homo sapiens;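 further: growth inhibition determined with a cell viability readout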
Description: SANGER: Inhibition of human NCI-H2087 cell growth in a cell viability assay.

FTC-133 = assay: cells; format: functional, cell-based; details: Homo sapiens
FaDu = assay: cells; format: functional, cell-based; details: Homo sapiens;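 further: cell viability readout of growth inhibition in FaDu cells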
Description: SANGER: Inhibition of human FADU cell growth in a cell viability assay.

BL-41 = assay: cells; format: functional, cell-based; details: Homo sapiens;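 further: growth inhibition of human BL-41 cells, read out with a cell viability assay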
Description: SANGER: Inhibition of human BL-41 cell growth in a cell viability assay.

Capan-2 = assay: cells; format: functional, cell-based; details: Homo sapiens;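 further: Capan-2 cell growth inhibition, read out with a viability assay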
Description: SANGER: Inhibition of human Capan-2 cell growth in a cell viability assay.

SW948 = assay: cells; format: functional, cell-based; details: Homo sapiens;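 further: growth inhibition of SW948 cells, read out with a cell viability assay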
Description: SANGER: Inhibition of human SW948 cell growth in a cell viability assay.

NCI-H727 = assay: cells; format: functional, cell-based; details: Homo sapiens;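 further: growth inhibition of human NCI-H727 cells, read out with a cell viability assay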
Description: SANGER: Inhibition of human NCI-H727 cell growth in a cell viability assay.

MKN-28 = assay: cells; format: functional, cell-based; details: Homo sapiens;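 further: cell viability assay read-out, IC50 reflects suppression of growth of human MKN-28 cells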
Description: SANGER: Inhibition of human MKN28 cell growth in a cell viability assay.

COLO-678 = assay: cells; format: functional, cell-based; details: Homo sapiens
Description: SANGER: Inhibition of human COLO-678 cell growth in a cell viability assay.

A2780 = assay: cells; format: functional, cell-based; details: Homo sapiens;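 further: growth inhibition of A2780 cells, read out with a cell viability assay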
Description: SANGER: Inhibition of human A2780 cell growth in a cell viability assay.

NCI-H1563 = assay: cells; format: functional, cell-based; details: Homo sapiens;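 further: growth inhibition of human NCI-H1563 cells, read out with a cell viability assay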
Description: SANGER: Inhibition of human NCI-H1563 cell growth in a cell viability assay.

LoVo = assay: cells; format: functional, cell-based; details: Homo sapiens;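 further: growth inhibition of human LoVo cells, read out with a cell viability assay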
Description: SANGER: Inhibition of human LoVo cell growth in a cell viability assay.

HPAF-II = assay: cells; format: functional, cell-based; details: Homo sapiens;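 further: growth inhibition of HPAF-II cells, read out with a cell viability assay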
Description: SANGER: Inhibition of human HPAF-II cell growth in a cell viability assay.

NCCIT = assay: SANGER: Inhibition of human NCCIT cell growth in a cell viability assay.; format: functional, cell-based; details: Homo sapiens, NCCIT
J82 = assay: cells; format: functional, cell-based; details: Homo sapiens;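 further: growth inhibition of J82 cells, read out with a cell viability assay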
Description: SANGER: Inhibition of human J82 cell growth in a cell viability assay.

CAL-33 = assay: cells; format: functional, cell-based; details: Homo sapiens;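 further: growth inhibition of CAL-33 cells, read out with a cell viability assay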
Description: SANGER: Inhibition of human CAL-33 cell growth in a cell viability assay.

SW1990 = assay: cells; format: functional, cell-based; details: Homo sapiens
Description: SANGER: Inhibition of human SW1990 cell growth in a cell viability assay.

TYK-nu = assay: cells; format: functional, cell-based; details: Homo sapiens;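 further: growth inhibition of human TYK-nu cells, read out by a cell viability assay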
Description: SANGER: Inhibition of human TYK-nu cell growth in a cell viability assay.

COR-L105 = assay: cells; format: functional, cell-based; details: Homo sapiens
Description: SANGER: Inhibition of human COR-L105 cell growth in a cell viability assay.

HCC1806 = assay: cells; format: functional, cell-based; details: Homo sapiens;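 further: growth inhibition of the cancer cell line, determined with a cell viability assay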
Description: SANGER: Inhibition of human HCC1806 cell growth in a cell viability assay.

SCC-25 = assay: cells; format: functional, cell-based; details: Homo sapiens;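 further: growth inhibition of SCC-25 cells, measured with a cell viability assay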
Description: SANGER: Inhibition of human SCC-25 cell growth in a cell viability assay.

VM-CUB-1 = assay: cells; format: functional, cell-based; details: Homo sapiens;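 further: cell viability assay measuring growth inhibition of the human VM-CUB-1 cell line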
Description: SANGER: Inhibition of human VM-CUB-1 cell growth in a cell viability assay.

NCI-H748 = assay: cells; format: functional, cell-based, Homo sapiens; details: Homo sapiens, NCI-H748;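 further: growth inhibition of NCI-H748 cells, measured by a cell viability assay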
Description: SANGER: Inhibition of human NCI-H748 cell growth in a cell viability assay.

BOKU = assay: cells; format: functional, cell-based; details: Homo sapiens;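 further: growth inhibition of the human BOKU cell line, read out by a cell viability assay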
Description: SANGER: Inhibition of human BOKU cell growth in a cell viability assay.

KYSE-150 cell line = assay: cells; format: functional, cell-based; details: Homo sapiens;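 further: growth inhibition of human KYSE-150 cells, read out with a cell viability assay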
Description: SANGER: Inhibition of human KYSE-150 cell growth in a cell viability assay.

HuTu80 = assay: cells; format: functional, cell-based, Homo sapiens, HUTU-80; details: Homo sapiens, HuTu80;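 further: growth inhibition of HuTu80 human cells, determined with a cell viability readout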
Description: SANGER: Inhibition of human HUTU-80 cell growth in a cell viability assay.

TE-15 = assay: cells; format: functional, cell-based, Homo sapiens; details: Homo sapiens, TE-15;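 further: cell viability readout of growth inhibition in TE-15 cells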
Description: SANGER: Inhibition of human TE-15 cell growth in a cell viability assay.

SAOS-2 = assay: cells; format: functional, cell-based; details: Homo sapiens;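 further: growth inhibition of human Saos-2 cells determined by a cell viability assay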
Description: SANGER: Inhibition of human Saos-2 cell growth in a cell viability assay.

SK-N-AS = assay: cells; format: functional, cell-based; details: Homo sapiens;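 further: growth inhibition of human SK-N-AS cells, measured with a cell viability assay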
Description: SANGER: Inhibition of human SK-N-AS cell growth in a cell viability assay.

KYSE-510 = assay: cells; format: functional, cell-based; details: Homo sapiens;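 further: cell viability readout used to measure how strongly growth of the cell line is suppressed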
Description: SANGER: Inhibition of human KYSE-510 cell growth in a cell viability assay.

A2058 = assay: cells; format: functional, cell-based; details: Homo sapiens;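 further: reduction of A2058 cell growth, read out with a viability assay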
Description: SANGER: Inhibition of human A2058 cell growth in a cell viability assay.

BPH-1 = assay: cells; format: functional, cell-based; details: Homo sapiens;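 further: cell viability assay measuring growth inhibition of human BPH-1 cells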
Description: SANGER: Inhibition of human BPH-1 cell growth in a cell viability assay.

NCI-H2081 = assay: cells; format: functional, cell-based, Homo sapiens; details: Homo sapiens, NCI-H2081;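 further: growth inhibition of human NCI-H2081 cells, read out with a cell viability assay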
Description: SANGER: Inhibition of human NCI-H2081 cell growth in a cell viability assay.

LCLC-97TM1 = assay: cells; format: functional, cell-based; details: Homo sapiens;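 further: cell viability assay measuring growth inhibition of human LCLC-97TM1 cells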
Description: SANGER: Inhibition of human LCLC-97TM1 cell growth in a cell viability assay.

COLO-741 = assay: cells; format: functional, cell-based; details: Homo sapiens
Description: SANGER: Inhibition of human COLO-741 cell growth in a cell viability assay.

GP5d = assay: cells; format: functional, cell-based; details: Homo sapiens;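 further: growth inhibition of human GP5d cells, read out with a cell viability assay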
Description: SANGER: Inhibition of human GP5d cell growth in a cell viability assay.

HT1197 = assay: cells; format: functional, cell-based, HT-1197; details: Homo sapiens
Description: SANGER: Inhibition of human HT-1197 cell growth in a cell viability assay.

769-P = assay: cells; format: functional, cell-based; details: Homo sapiens
Description: SANGER: Inhibition of human 769-P cell growth in a cell viability assay.

ARH-77 = assay: cells; format: functional, cell-based, Homo sapiens; details: Homo sapiens, ARH-77;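 further: growth inhibition of ARH-77 cells, read out by a cell viability assay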
Description: SANGER: Inhibition of human ARH-77 cell growth in a cell viability assay.

CAL-54 = assay: cells; format: functional, cell-based; details: Homo sapiens;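 further: growth inhibition of CAL-54 cells, read out by a viability measurement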
Description: SANGER: Inhibition of human CAL-54 cell growth in a cell viability assay.

UMUC3 = assay: cells; format: functional, cell-based; details: Homo sapiens;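 further: growth inhibition of human UM-UC-3 cells, read out with a cell viability assay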
Description: SANGER: Inhibition of human UM-UC-3 cell growth in a cell viability assay.

MIA PaCa-2 = assay: cells; format: functional, cell-based; details: Homo sapiens;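 further: growth inhibition of MIA PaCa-2 cells, read out with a cell viability assay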
Description: SANGER: Inhibition of human MIA-PaCa-2 cell growth in a cell viability assay.

D-392MG = assay: cells; format: functional, cell-based; details: Homo sapiens
NCI-H322M = assay: cells; format: functional, cell-based, Homo sapiens; details: Homo sapiens, NCI-H322M;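 further: cell viability assay measuring inhibition of growth of human NCI-H322M cells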
Description: SANGER: Inhibition of human NCI-H322M cell growth in a cell viability assay.

OPM-2 = assay: cells; format: functional, cell-based, Homo sapiens; details: Homo sapiens, OPM-2;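 further: growth of OPM-2 cells measured with a viability assay, IC50 for suppression of proliferation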
Description: SANGER: Inhibition of human OPM-2 cell growth in a cell viability assay.

Compound: COc1ccc(-c2cc3nccn3c(Nc3ncccc3C(N)=O)n2)cc1OC
- IC50 (NCI-H520): > 8 µM
- IC50 (EW-24): > 8 µM
- IC50 (SNU-16): > 8 µM
- IC50 (CAL-72): > 8 µM
- IC50 (DU-145): 7.97 µM
- IC50 (U-698-M): 1020 nM
- IC50 (ACHN): 1380 nM
- IC50 (HCC70): 1930 nM
- IC50 (CAMA-1): > 8 µM
- IC50 (CESS): 1450 nM
- IC50 (LN-405): > 8 µM
- IC50 (KMS-12-PE): > 8 µM
- IC50 (NCI-H1573): > 8 µM
- IC50 (BL-70): 671 nM
- IC50 (H4): > 8000 nM
- IC50 (NCI-H2087): 2790 nM
- IC50 (FTC-133): > 8 µM
- IC50 (FaDu): > 8 µM
- IC50 (BL-41): 1390 nM
- IC50 (Capan-2): > 8 µM
- IC50 (SW948): > 8 µM
- IC50 (NCI-H727): 6.15 µM
- IC50 (MKN-28): 4.49 µM
- IC50 (COLO-678): > 8 µM
- IC50 (A2780): 1530 nM
- IC50 (NCI-H1563): > 8 µM
- IC50 (LoVo): 2.61 µM
- IC50 (HPAF-II): > 8 µM
- IC50 (NCCIT): 2360 nM
- IC50 (J82): 1.51 µM
- IC50 (CAL-33): > 8 µM
- IC50 (SW1990): > 8 µM
- IC50 (TYK-nu): > 8 µM
- IC50 (COR-L105): 1140 nM
- IC50 (HCC1806): > 8 µM
- IC50 (SCC-25): > 8 µM
- IC50 (VM-CUB-1): > 8 µM
- IC50 (NCI-H748): > 8 µM
- IC50 (BOKU): > 8 µM
- IC50 (KYSE-150 cell line): 6.05 µM
- IC50 (HuTu80): 1810 nM
- IC50 (TE-15): 1280 nM
- IC50 (SAOS-2): > 8 µM
- IC50 (SK-N-AS): > 8 µM
- IC50 (KYSE-510): 2.87 µM
- IC50 (A2058): > 8 µM
- IC50 (BPH-1): 1990 nM
- IC50 (NCI-H2081): > 8 µM
- IC50 (LCLC-97TM1): 0.57 µM
- IC50 (COLO-741): > 8 µM
- IC50 (GP5d): > 8 µM
- IC50 (HT1197): > 8 µM
- IC50 (769-P): 980 nM
- IC50 (ARH-77): 3.06 µM
- IC50 (CAL-54): > 8 µM
- IC50 (UMUC3): 7.41 µM
- IC50 (MIA PaCa-2): 5.4 µM
- IC50 (D-392MG): > 8 µM
- IC50 (NCI-H322M): > 8 µM
- IC50 (OPM-2): 6.16 µM

Compound: OC[C@H](Cc1ccccc1)Nc1nc(Oc2ccc3c(c2)CCC3)nc2c1ncn2Cc1ccc(-c2ccccc2)cc1
- IC50 (NCI-H520): > 10.2 µM
- IC50 (EW-24): > 10.2 µM
- IC50 (SNU-16): > 10.2 µM
- IC50 (CAL-72): > 10.2 µM
- IC50 (DU-145): 7.86 µM
- IC50 (U-698-M): > 10200 nM
- IC50 (ACHN): > 10200 nM
- IC50 (HCC70): > 10200 nM
- IC50 (CAMA-1): 9.65 µM
- IC50 (CESS): > 10200 nM
- IC50 (LN-405): > 10.2 µM
- IC50 (KMS-12-PE): > 10.2 µM
- IC50 (NCI-H1573): > 10.2 µM
- IC50 (BL-70): 4130 nM
- IC50 (H4): 1860 nM
- IC50 (NCI-H2087): > 10200 nM
- IC50 (FTC-133): > 10.2 µM
- IC50 (FaDu): > 10.2 µM
- IC50 (BL-41): 3690 nM
- IC50 (Capan-2): > 10.2 µM
- IC50 (SW948): > 10.2 µM
- IC50 (NCI-H727): > 10.2 µM
- IC50 (MKN-28): 1.73 µM
- IC50 (COLO-678): > 10.2 µM
- IC50 (A2780): > 10200 nM
- IC50 (NCI-H1563): > 10.2 µM
- IC50 (LoVo): 4.56 µM
- IC50 (HPAF-II): > 10.2 µM
- IC50 (NCCIT): > 10200 nM
- IC50 (J82): 9.51 µM
- IC50 (CAL-33): > 10.2 µM
- IC50 (SW1990): > 10.2 µM
- IC50 (TYK-nu): > 10.2 µM
- IC50 (COR-L105): > 10200 nM
- IC50 (HCC1806): > 10.2 µM
- IC50 (SCC-25): > 10.2 µM
- IC50 (VM-CUB-1): > 10.2 µM
- IC50 (NCI-H748): > 10.2 µM
- IC50 (BOKU): > 10.2 µM
- IC50 (KYSE-150 cell line): 9.34 µM
- IC50 (HuTu80): 1310 nM
- IC50 (TE-15): > 10200 nM
- IC50 (SAOS-2): > 10.2 µM
- IC50 (SK-N-AS): > 10.2 µM
- IC50 (KYSE-510): 3.45 µM
- IC50 (A2058): > 10.2 µM
- IC50 (BPH-1): > 10200 nM
- IC50 (NCI-H2081): > 10.2 µM
- IC50 (LCLC-97TM1): 6.43 µM
- IC50 (COLO-741): > 10.2 µM
- IC50 (GP5d): > 10.2 µM
- IC50 (HT1197): > 10.2 µM
- IC50 (769-P): 3640 nM
- IC50 (ARH-77): > 10.2 µM
- IC50 (CAL-54): > 10.2 µM
- IC50 (UMUC3): > 10.2 µM
- IC50 (MIA PaCa-2): 8.88 µM
- IC50 (D-392MG): > 10.2 µM
- IC50 (NCI-H322M): > 10.2 µM
- IC50 (OPM-2): > 10.2 µM
